Measurements: paper PMC5556071, “ATR inhibition facilitates targeting of leukemia dependence on convergent nucleotide biosynthetic pathways” (Nature Communications, 2017)
Several values for one entry are separate records, joined by “and”; a condition that tells them apart may be missing. Identical values can stand only once.

System: CEM cells
Test: Non-targeted LC-MS metabolite profiling: percent [13C6]glucose labeling and relative metabolite levels
Type: cell-based, human
Conditions: CEM cells, 12 h following release from G1 arrest, replicates #1-#6
Excerpt: To further investigate the functions of dCK and ATR at the G1/S transition in CEM cells, a non-targeted liquid chromatography mass spectrometry (LC-MS) assay was used to determine the utilization of labeled [^13C6]glucose and [^13C9,^15N3]deoxycytidine, the main substrates for de novo and salvage nucleotide biosynthesis, respectively. Of the 166 metabolites identified in CEM cells treated with VE-822 and/or dCKi, 105 metabolites found in all four treatment groups contained glucose-derived ^13C atoms. […] These metabolites included intermediates such as rUTP, rCTP and rCDP in the de novo dCTP biosynthesis (Fig. 1d). […] However, several deoxyribonucleotides, including dCTP, were below the limit of detection of the non-targeted LC-MS approach, raising the concern that the sensitivity of this assay is not sufficient to measure the contribution of the salvage pathway or the ratio of de novo and salvage biosynthesis to these pools. To address this problem, a newly developed targeted MS assay was developed (Fig. 1e and Supplementary Fig. 3). In this assay, samples containing either extracted dNTPs or hydrolyzed DNA from labeled cells are separated by LC for detection by a triple quadrupole mass spectrometer using multiple reaction monitoring (LC-MS/MS-MRM). The first (Q1) and third (Q3) quadrupoles function as mass filters, while the second (Q2) quadrupole serves as a collision chamber (Fig. 1e). For instance, to profile the biosynthetic composition of deoxycytidine (dC) derived from hydrolyzed DNA or dCTP, an intact, protonated dC ion is selected in Q1, followed by fragmentation of the glycosidic bond, which releases protonated cytosine in Q2, that is filtered in Q3 and detected to generate an ion chromatogram. The peak areas for the ion chromatograms of salvage [^13C9,^15N3]dC (red trace), de novo [^13C5]dC (black trace, from [^13C6]glucose) and unlabeled dC (gray trace) (Fig. 1e) are used to determine the relative contributions of the de novo and salvage routes both to dCTP pools and to DNA-incorporated dCTP.
Cells were transferred into RPMI-1640 without glucose and supplemented with 10% dialyzed FBS (Gibco) containing the following labeled substrates: precursors for de novo [U-^13C6]glucose (Sigma-Aldrich, 389374) at 11 mM; precursors for purine salvage [U-^13C10,^15N5]dA (Cambridge Isotopes, CIL 3896), [^15N5]dA (Cambridge Isotopes, NLM-3895) and [^15N5]dG (Cambridge Isotopes, NLM-3899) at 5 µM or as indicated; and precursors for pyrimidine salvage: [U-^13C9,^15N3]dC (Silantes, 124603602) and [U-^13C10,^15N2]dT (Cambridge Isotopes, CNLM-3902) at 5 µM and [^15N2]orotate (Cambridge Isotopes, NLM-1048) at indicated concentrations. The cells were incubated for 12 h or as indicated before sample collection and processing. […]
Non-targeted LC-MS metabolic assays. 1 x 10^6 cells were washed with ice-cold 150 mM ammonium acetate twice before adding 1 mL of ice-cold 80% methanol with 10 nM norvaline as an internal standard. After vigorous vortexing, samples were centrifuged at maximum speed, the aqueous layer was transferred to a glass vial and the metabolites were dried under vacuum. Metabolites were resuspended in 50 μL 70% acetonitrile (ACN) and 5 μL of this solution used for the mass spectrometer-based analysis. The analysis was performed on a Q Exactive (Thermo Scientific) in polarity-switching mode with positive voltage 4.0 kV and negative voltage 4.0 kV. The mass spectrometer was coupled to an UltiMate 3000RSLC (Thermo Scientific) UHPLC system. Mobile phase A was 5 mM ammonium acetate (NH4AcO), pH 9.9, B was acetonitrile and the separation achieved on a Luna […] NH2 100 A column (150 × 2.0 mm, Phenomenex). The flow was 200 μL/min, and the gradient ran from 15% A to 95% A in 18 min, followed by an isocratic step for 9 min and re-equilibration for 7 min. Metabolites were detected and quantified as area under the curve based on retention time and accurate mass (≤ 3 p.p.m.) using the TraceFinder 3.1 (Thermo Scientific). Relative amounts of […]

[1] = metabolite Asn (C00152), listed as D
[2] = metabolite Asp (C00049), listed as D
[3] = metabolite Carnitine (C00318), listed as D
[4] = metabolite G3P (KEGG C00118), listed as D
[5] = metabolite G6P-F6P (KEGG C00668), listed as D
[6] = metabolite GABA (KEGG C00334), listed as D
[7] = metabolite GDP (KEGG C00035), listed as D
[8] = metabolite GMP (KEGG C00144), listed as D
[9] = metabolite GSH (KEGG C00051), listed as D
[10] = metabolite GSSG (KEGG C00127), listed as D
[11] = metabolite GTP (KEGG C00044), listed as D
[12] = metabolite Glc (KEGG C00031), listed as D
[13] = metabolite GlcA (KEGG C00257), listed as D
[14] = metabolite GlcN-6P (KEGG C00352), listed as D
[15] = metabolite GlcNAc-6P (KEGG C00357), listed as D
[16] = metabolite Gln (KEGG C00064), listed as D
[17] = metabolite Glu (KEGG C00025), listed as D
[18] = metabolite GlucA (KEGG C00191), listed as D
[19] = metabolite Gly (KEGG C00037), listed as D
[20] = metabolite Glycerol (KEGG C00116), listed as D
[21] = metabolite Glycerol-2-P (KEGG C02979), listed as D
[22] = metabolite Glycerol-3-P (KEGG C00093), listed as D
[23] = metabolite His (KEGG C00135), listed as D
[24] = metabolite Homocysteine (KEGG C00155), listed as D
[25] = metabolite Hypoxanthine (KEGG C00262), listed as D
[26] = metabolite IMP (KEGG C00130), listed as D
[27] = metabolite Inosine (KEGG C00294), listed as D
[28] = metabolite a-KG (C00026), listed as D

SMILES: COc1ccc(-c2nc([C@@H](C)Sc3nc(N)cc(N)n3)c(C)s2)cc1OCCNS(C)(=O)=O [dCKi]
- Relative level, Arg-Succ (metabolite Arg-Succ (C03406), listed as D): 1.1 and 1.2 and 1.4 and 0.428 and 0.458 and 0.6
- Glucose labeling, Asn [1]: 0.000993% and 2.77e-6% and 0.00524% and 0.00322% and 0.000183% and 2.2e-6%
- Relative level, Asn [1]: 1.1 and 1.3 (2×) and 0.8 and 0.7 and 0.85
- Glucose labeling, Asp [2]: 24.08% and 25.99% and 25.39% and 25.08% and 25.80% and 25.92%
- Relative level, Asp [2]: 0.9 (3×) and 1.1 and 0.5 and 0.6
- Glucose labeling, C (metabolite C (D07769), listed as D): 0.44% (4×) and 0.15% and 0.31%
- Relative level, C (metabolite C, listed as D): 1.0 and 1.2 and 1.3 (2×) and 1.4 and 1.1
- Glucose labeling, Carnitine [3]: 0.0041% and 0.00586% and 0.00566% and 0.00463% and 0.00467% and 0.00476%
- Relative level, Carnitine [3]: 1.0 and 1.1 (2×) and 0.9 (2×) and 0.843
- Glucose labeling of G3P [4]: 100.00% (3×) and 0.0369% (3×)
- Relative level of G3P [4]: 0.316 and 1.2 and 0.237 and 0.232
- Glucose labeling of G6P-F6P [5]: 57.18% and 69.30% and 72.35% and 21.95% and 56.24% and 64.94%
- Relative level of G6P-F6P [5]: 0.6 and 0.7 and 1.0 and 0.163 and 0.339 and 0.4
- Glucose labeling of GABA [6]: 0.0266% and 0.0568% and 0.0445% and 0.0322% and 0.0737% (2×)
- Relative level of GABA [6]: 1.2 and 1.4 and 1.5 and 0.6 and 0.5 and 0.466
- Glucose labeling of GDP [7]: 100.00% (2×) and 89.71% and 79.16% and 66.81% and 77.84%
- Relative level of GDP [7]: 0.278 and 0.74 and 2.1 and 0.0943 and 0.533
- Glucose labeling of GMP [8]: 82.17% and 84.38% and 86.57% and 100.00% and 55.56% and 83.28%
- Relative level of GMP [8]: 1.0 (2×) and 2.5 and 0.177 and 0.7
- Glucose labeling of GSH [9]: 24.91% and 25.95% and 26.01% and 22.52% and 20.58% and 22.91%
- Relative level of GSH [9]: 0.8 and 1.1 and 1.4 and 0.2 and 0.245 and 0.4
- Glucose labeling of GSSG [10]: 44.73% and 47.85% and 45.35% and 40.72% and 38.47% and 41.79%
- Relative level of GSSG [10]: 1.0 (2×) and 1.3 and 1.5 and 0.364 and 0.7
- Glucose labeling of GTP [11]: 88.53% and 93.02% and 84.10% and 100.00% and 95.85% and 82.17%
- Relative level of GTP [11]: 0.137 and 0.6 and 1.3 and 0.0117 and 0.173 and 0.5
- Glucose labeling of Glc [12]: 48.02% and 85.76% and 96.57% and 84.10% and 87.56% and 88.93%
- Relative level of Glc [12]: 0.632 and 1.4 and 6.6 and 1.5 and 2.2 and 2.0
- Glucose labeling of GlcA [13]: 38.48% and 42.08% and 42.11% and 29.34% and 32.69% and 34.11%
- Relative level of GlcA [13]: 1.0 (2×) and 1.4 and 0.4 and 0.5 and 0.7
- Glucose labeling of GlcN (metabolite GlcN (KEGG C00329)): 0.18%
- Relative level of GlcN (metabolite GlcN (KEGG C00329), listed as D): 1.4 and 0.948 and 0.9 (2×) and 1.0 and 0.8
- Glucose labeling of GlcN-6P [14]: 6.04% and 8.63% and 7.74% and 8.56% and 9.86% and 9.69%
- Relative level of GlcN-6P [14]: 0.8 and 0.847 and 1.1 and 0.743 and 0.7 and 1.0
- Glucose labeling of GlcNAc-6P [15]: 12.90% and 10.87% and 25.06% and 34.14% and 41.68% and 27.99%
- Relative level of GlcNAc-6P [15]: 0.636 and 0.8 and 1.2 and 0.212 and 0.6 (2×)
- Glucose labeling of Gln [16]: 0.24% and 0.28% (4×) and 0.29%
- Relative level of Gln [16]: 1.0 (2×) and 1.2 and 1.3 and 0.9 (2×)
- Glucose labeling of Glu [17]: 30.50% and 31.50% and 31.06% and 32.25% and 32.69% and 32.43%
- Relative level of Glu [17]: 1.0 and 1.1 and 1.2 and 0.6 (2×) and 0.751
- Glucose labeling of GlucA [18]: 0.47% and 1.38% and 1.95% and 0.76% and 1.61% and 0.18%
- Relative level of GlucA [18]: 1.5 and 0.9 and 1.3 and 0.635 and 0.563 and 0.7
- Glucose labeling of Gly [19]: 5.78% and 6.19% and 5.38% and 3.11% and 3.32% and 3.83%
- Relative level of Gly [19]: 1.1 and 1.3 and 1.2 (2×) and 0.9 and 0.854
- Glucose labeling of Glycerol [20]: 0.0257% and 0.0369% (2×) and 0.03% and 0.00165% and 0.0279%
- Relative level of Glycerol [20]: 0.8 (2×) and 0.7 and 1.5 and 2.6 and 2.4
- Glucose labeling of Glycerol-2-P [21]: 12.49% and 5.31% and 20.27% and 20.32% and 0.0369% and 11.49%
- Relative level of Glycerol-2-P [21]: 0.6 and 0.5 and 1.9 and 0.0423 and 0.16 and 0.346
- Glucose labeling of Glycerol-3-P [22]: 15.24% and 16.29% and 15.98% and 18.03% and 18.16% and 17.98%
- Relative level of Glycerol-3-P [22]: 1.0 and 0.9 (2×) and 0.7 (2×) and 0.656
- Glucose labeling of HS2O3 (metabolite HS2O3 (KEGG C00320)): 100.00%
- Relative level of HS2O3 (metabolite HS2O3 (KEGG C00320), listed as D): 0.9 (2×) and 1.0 and 0.8 and 1.1 (2×)
- Glucose labeling of His [23]: 0.00% (5×) and 1.11e-14%
- Relative level of His [23]: 1.2 and 1.3 and 1.5 and 0.76 and 0.6 and 0.7
- Glucose labeling of Homocysteine [24]: 0.022% and 0.0737% and 0.000309% and 0.01% and 0.000455% and 0.23%
- Relative level of Homocysteine [24]: 2.7 and 0.5 and 1.5 (2×) and 3.4 and 0.855
- Glucose labeling of Hypoxanthine [25]: 0.00941% and 0.12% (4×) and 0.06%
- Relative level of Hypoxanthine [25]: 2.0 and 0.2 and 1.0 and 1.3 (2×) and 2.9
- Glucose labeling of IMP [26]: 93.29% and 98.06% and 95.55% and 100.00% and 94.31% and 97.32%
- Relative level of IMP [26]: 0.7 and 0.8 and 1.6 and 0.111 and 0.323 and 0.6
- Glucose labeling of Inosine [27]: 0.55% (4×) and 100.00% and 49.07%
- Relative level of Inosine [27]: 0.5 and 0.547 and 0.3 and 0.568 and 0.6
- Glucose labeling of Inositol (metabolite Inositol (KEGG C00137)): 0.00%
- Relative level of Inositol (metabolite Inositol (KEGG C00137), listed as D): 1.0 (2×) and 1.6 (2×) and 1.1 (2×)
- Glucose labeling, a-KG [28]: 4.27% and 11.78% and 16.08% and 0.12% (2×) and 4.73%
- Relative level, a-KG [28]: 0.7 and 1.1 and 2.3 and 0.0795 and 0.14 and 0.259
